Test results from ChEMBL document CHEMBL5370535, “Thiazolyl hydrazineylidenyl indolones as unique potential multitargeting broad-spectrum antimicrobial agents” (Eur J Med Chem, 2023).
≈ marks a conversion by molar mass, not a printed value.

Tests used:
Assay type in all cases: functional
Staphylococcus aureus [1] = assay: Antibacterial activity against methicillin-resistant Staphylococcus aureus assessed as bacterial growth inhibition incubated for 24 hrs by CLSI based two serial dilution assay
Enterococcus faecalis = assay: Antibacterial activity against Enterococcus faecalis assessed as bacterial growth inhibition incubated for 24 hrs by CLSI based two serial dilution assay
Staphylococcus aureus [2] = assay: Antibacterial activity against Staphylococcus aureus assessed as bacterial growth inhibition incubated for 24 hrs by CLSI based two serial dilution assay
Staphylococcus aureus [3] = assay: Antibacterial activity against Staphylococcus aureus 25923 assessed as bacterial growth inhibition incubated for 24 hrs by CLSI based two serial dilution assay
Staphylococcus aureus [4] = assay: Antibacterial activity against Staphylococcus aureus 29213 assessed as bacterial growth inhibition incubated for 24 hrs by CLSI based two serial dilution assay
Klebsiella pneumoniae = assay: Antibacterial activity against Klebsiella pneumoniae assessed as bacterial growth inhibition incubated for 24 hrs by CLSI based two serial dilution assay
Escherichia coli [5] = assay: Antibacterial activity against Escherichia coli assessed as bacterial growth inhibition incubated for 24 hrs by CLSI based two serial dilution assay
Escherichia coli [6] = assay: Antibacterial activity against Escherichia coli 25922 assessed as bacterial growth inhibition incubated for 24 hrs by CLSI based two serial dilution assay
Pseudomonas aeruginosa [7] = assay: Antibacterial activity against Pseudomonas aeruginosa assessed as bacterial growth inhibition incubated for 24 hrs by CLSI based two serial dilution assay
Pseudomonas aeruginosa [8] = assay: Antibacterial activity against Pseudomonas aeruginosa ATCC 27853 assessed as bacterial growth inhibition incubated for 24 hrs by CLSI based two serial dilution assay
Acinetobacter baumannii = assay: Antibacterial activity against Acinetobacter baumannii assessed as bacterial growth inhibition incubated for 24 hrs by CLSI based two serial dilution assay
Candida albicans [9] = assay: Antifungal activity against Candida albicans assessed as inhibition of fungal growth incubated for 24 hrs by CLSI based two serial dilution assay
Candida albicans [10] = assay: Antifungal activity against Candida albicans ATCC 90023 assessed as inhibition of fungal growth incubated for 24 hrs by CLSI based two serial dilution assay
Candida tropicalis = assay: Antifungal activity against Candida tropicalis assessed as inhibition of fungal growth incubated for 24 hrs by CLSI based two serial dilution assay
Candida parapsilosis = assay: Antifungal activity against Candida parapsilosis ATCC 22019 assessed as inhibition of fungal growth incubated for 24 hrs by CLSI based two serial dilution assay; conditions: Lodderomyces parapsilosis
Aspergillus fumigatus = assay: Antifungal activity against Aspergillus fumigatus assessed as inhibition of fungal growth incubated for 24 hrs by CLSI based two serial dilution assay

| SMILES | MIC (Staphylococcus aureus [1]) | MIC (Enterococcus faecalis) | MIC (Staphylococcus aureus [2]) | MIC (Staphylococcus aureus [3]) | MIC (Staphylococcus aureus [4]) | MIC (Klebsiella pneumoniae) | MIC (Escherichia coli [5]) | MIC (Escherichia coli [6]) | MIC (Pseudomonas aeruginosa [7]) | MIC (Pseudomonas aeruginosa [8]) | MIC (Acinetobacter baumannii) | MIC (Candida albicans [9]) | MIC (Candida albicans [10]) | MIC (Candida tropicalis) | MIC (Candida parapsilosis) | MIC (Aspergillus fumigatus) |
| --- | --- | --- | --- | --- | --- | --- | --- | --- | --- | --- | --- | --- | --- | --- | --- | --- |
| O=C1/C(=N\Nc2nccs2)c2ccccc2N1Cc1cccc(Cl)c1 | 16 µM (≈ 5.9 µg/mL) | 32 µM (≈ 11.8 µg/mL) | 32 µM (≈ 11.8 µg/mL) | 8 µM (≈ 2.95 µg/mL) | 16 µM (≈ 5.9 µg/mL) | 256 µM (≈ 94.4 µg/mL) | 128 µM (≈ 47.2 µg/mL) | 256 µM (≈ 94.4 µg/mL) | 256 µM (≈ 94.4 µg/mL) | 512 µM (≈ 189 µg/mL) | 256 µM (≈ 94.4 µg/mL) | 256 µM (≈ 94.4 µg/mL) | 128 µM (≈ 47.2 µg/mL) | 64 µM (≈ 23.6 µg/mL) | 128 µM (≈ 47.2 µg/mL) | 16 µM (≈ 5.9 µg/mL) |
| CCCCN1C(=O)/C(=N\Nc2nc(-c3ccc(F)cc3F)cs2)c2ccccc21 | 512 µM (≈ 211 µg/mL) | 512 µM (≈ 211 µg/mL) | 4 µM (≈ 1.65 µg/mL) | 512 µM (≈ 211 µg/mL) | 4 µM (≈ 1.65 µg/mL) | 512 µM (≈ 211 µg/mL) | 512 µM (≈ 211 µg/mL) | 512 µM (≈ 211 µg/mL) | 2 µM (≈ 0.825 µg/mL) | 512 µM (≈ 211 µg/mL) | 512 µM (≈ 211 µg/mL) | 512 µM (≈ 211 µg/mL) | 512 µM (≈ 211 µg/mL) | 512 µM (≈ 211 µg/mL) | 512 µM (≈ 211 µg/mL) | 512 µM (≈ 211 µg/mL) |
| C=CC1=C(C(=O)O)N2C(=O)[C@@H](NC(=O)/C(=N\O)c3csc(N)n3)[C@H]2SC1 [CEFDINIR] | 1 µM (≈ 0.395 µg/mL) | 2 µM (≈ 0.791 µg/mL) | 1 µM (≈ 0.395 µg/mL) | 0.5 µM (≈ 0.198 µg/mL) | 0.5 µM (≈ 0.198 µg/mL) | 0.5 µM (≈ 0.198 µg/mL) | 1 µM (≈ 0.395 µg/mL) | 2 µM (≈ 0.791 µg/mL) | 0.5 µM (≈ 0.198 µg/mL) | 1 µM (≈ 0.395 µg/mL) | 2 µM (≈ 0.791 µg/mL) |  |  |  |  |  |
| CCCCCN1C(=O)/C(=N\Nc2nccs2)c2ccccc21 | 4 µM (≈ 1.26 µg/mL) | 4 µM (≈ 1.26 µg/mL) | 4 µM (≈ 1.26 µg/mL) | 16 µM (≈ 5.03 µg/mL) | 4 µM (≈ 1.26 µg/mL) | 4 µM (≈ 1.26 µg/mL) | 16 µM (≈ 5.03 µg/mL) | 4 µM (≈ 1.26 µg/mL) | 2 µM (≈ 0.629 µg/mL) | 16 µM (≈ 5.03 µg/mL) | 4 µM (≈ 1.26 µg/mL) | 4 µM (≈ 1.26 µg/mL) | 4 µM (≈ 1.26 µg/mL) | 16 µM (≈ 5.03 µg/mL) | 4 µM (≈ 1.26 µg/mL) | 4 µM (≈ 1.26 µg/mL) |
| O=C1/C(=N\Nc2nccs2)c2ccccc2N1Cc1ccccc1Cl | 8 µM (≈ 2.95 µg/mL) | 32 µM (≈ 11.8 µg/mL) | 8 µM (≈ 2.95 µg/mL) | 64 µM (≈ 23.6 µg/mL) | 64 µM (≈ 23.6 µg/mL) | 512 µM (≈ 189 µg/mL) | 256 µM (≈ 94.4 µg/mL) | 256 µM (≈ 94.4 µg/mL) | 32 µM (≈ 11.8 µg/mL) | 512 µM (≈ 189 µg/mL) | 512 µM (≈ 189 µg/mL) | 16 µM (≈ 5.9 µg/mL) | 4 µM (≈ 1.48 µg/mL) | 16 µM (≈ 5.9 µg/mL) | 4 µM (≈ 1.48 µg/mL) | 16 µM (≈ 5.9 µg/mL) |
| CCCN1C(=O)/C(=N\Nc2nccs2)c2ccccc21 | 32 µM (≈ 9.16 µg/mL) | 16 µM (≈ 4.58 µg/mL) | 16 µM (≈ 4.58 µg/mL) | 4 µM (≈ 1.15 µg/mL) | 4 µM (≈ 1.15 µg/mL) | 32 µM (≈ 9.16 µg/mL) | 128 µM (≈ 36.7 µg/mL) | 4 µM (≈ 1.15 µg/mL) | 2 µM (≈ 0.573 µg/mL) | 32 µM (≈ 9.16 µg/mL) | 32 µM (≈ 9.16 µg/mL) | 64 µM (≈ 18.3 µg/mL) | 128 µM (≈ 36.7 µg/mL) | 32 µM (≈ 9.16 µg/mL) | 32 µM (≈ 9.16 µg/mL) | 16 µM (≈ 4.58 µg/mL) |
| CCCCN1C(=O)/C(=N\Nc2nc(C)c(C(=O)OCC)s2)c2ccccc21 | 128 µM (≈ 49.5 µg/mL) | 256 µM (≈ 98.9 µg/mL) | 64 µM (≈ 24.7 µg/mL) | 512 µM (≈ 198 µg/mL) | 64 µM (≈ 24.7 µg/mL) | 256 µM (≈ 98.9 µg/mL) | 256 µM (≈ 98.9 µg/mL) | 128 µM (≈ 49.5 µg/mL) | 1 µM (≈ 0.386 µg/mL) | 256 µM (≈ 98.9 µg/mL) | 128 µM (≈ 49.5 µg/mL) | 512 µM (≈ 198 µg/mL) | 512 µM (≈ 198 µg/mL) | 128 µM (≈ 49.5 µg/mL) | 256 µM (≈ 98.9 µg/mL) | 128 µM (≈ 49.5 µg/mL) |
| CCCCN1C(=O)/C(=N\Nc2nccs2)c2c(Cl)cccc21 | 256 µM (≈ 85.7 µg/mL) | 128 µM (≈ 42.9 µg/mL) | 512 µM (≈ 171 µg/mL) | 512 µM (≈ 171 µg/mL) | 1 µM (≈ 0.335 µg/mL) | 1 µM (≈ 0.335 µg/mL) | 256 µM (≈ 85.7 µg/mL) | 512 µM (≈ 171 µg/mL) | 1 µM (≈ 0.335 µg/mL) | 128 µM (≈ 42.9 µg/mL) | 256 µM (≈ 85.7 µg/mL) | 256 µM (≈ 85.7 µg/mL) | 512 µM (≈ 171 µg/mL) | 128 µM (≈ 42.9 µg/mL) | 16 µM (≈ 5.36 µg/mL) | 256 µM (≈ 85.7 µg/mL) |
| C#CCN1C(=O)/C(=N\Nc2nccs2)c2ccccc21 | 256 µM (≈ 72.3 µg/mL) | 256 µM (≈ 72.3 µg/mL) | 256 µM (≈ 72.3 µg/mL) | 512 µM (≈ 145 µg/mL) | 512 µM (≈ 145 µg/mL) | 512 µM (≈ 145 µg/mL) | 512 µM (≈ 145 µg/mL) | 512 µM (≈ 145 µg/mL) | 256 µM (≈ 72.3 µg/mL) | 512 µM (≈ 145 µg/mL) | 512 µM (≈ 145 µg/mL) | 256 µM (≈ 72.3 µg/mL) | 256 µM (≈ 72.3 µg/mL) | 256 µM (≈ 72.3 µg/mL) | 64 µM (≈ 18.1 µg/mL) | 64 µM (≈ 18.1 µg/mL) |
| CCCCN1C(=O)/C(=N\Nc2nc(C)cs2)c2ccccc21 | 2 µM (≈ 0.629 µg/mL) | 16 µM (≈ 5.03 µg/mL) | 32 µM (≈ 10.1 µg/mL) | 8 µM (≈ 2.52 µg/mL) | 32 µM (≈ 10.1 µg/mL) | 4 µM (≈ 1.26 µg/mL) | 16 µM (≈ 5.03 µg/mL) | 4 µM (≈ 1.26 µg/mL) | 1 µM (≈ 0.314 µg/mL) | 512 µM (≈ 161 µg/mL) | 4 µM (≈ 1.26 µg/mL) | 256 µM (≈ 80.5 µg/mL) | 1 µM (≈ 0.314 µg/mL) | 4 µM (≈ 1.26 µg/mL) | 256 µM (≈ 80.5 µg/mL) | 64 µM (≈ 20.1 µg/mL) |
| CCCCN1C(=O)/C(=N\Nc2nccs2)c2cc(C)ccc21 | 4 µM (≈ 1.26 µg/mL) | 32 µM (≈ 10.1 µg/mL) | 4 µM (≈ 1.26 µg/mL) | 8 µM (≈ 2.52 µg/mL) | 2 µM (≈ 0.629 µg/mL) | 2 µM (≈ 0.629 µg/mL) | 4 µM (≈ 1.26 µg/mL) | 4 µM (≈ 1.26 µg/mL) | 16 µM (≈ 5.03 µg/mL) | 32 µM (≈ 10.1 µg/mL) | 2 µM (≈ 0.629 µg/mL) | 4 µM (≈ 1.26 µg/mL) | 4 µM (≈ 1.26 µg/mL) | 2 µM (≈ 0.629 µg/mL) | 1 µM (≈ 0.314 µg/mL) | 2 µM (≈ 0.629 µg/mL) |
